One block for each compound: values may come before it. Active and inactive are the calls of the source. The rule behind the calls is not given here.
Experiments:
[1] = Effect on AKT expression in rat RG2 cells at 206 uM after 48 hrs by Western blot analysis (reference value: 1); type: functional
DBTRG-05MG [2] = experiment: Induction of apoptosis in human DBTRG-05MG cells assessed as increase in apoptotic body formation at 206 uM after 48 hrs by TUNEL assay; type: functional, cell-based
DBTRG-05MG [3] = experiment: Induction of apoptosis in human DBTRG-05MG cells assessed as cleaved caspace-9 expression at 206 uM after 48 hrs by Western blot analysis (reference value: 1); type: functional
RG2 [4] = experiment: Induction of cell cycle arrest in rat RG2 cells assessed as accumulation at G2/M phase at 206 uM after 6 hrs by propidium iodide staining based flow cytometric analysis (reference value: 20.04 +/- 0.55%); type: functional
RG2 [5] = experiment: Induction of apoptosis in rat RG2 cells assessed as increase in DNA fragmentation at 206 uM after 48 hrs by TUNEL assay; type: functional, cell-based
RG2 [6] = experiment: Induction of cell cycle arrest in rat RG2 cells assessed as CyclinB1 expression at 206 uM after 48 hrs by Western blot analysis (reference value: 1); type: functional
DBTRG-05MG [7] = experiment: Inhibition of JNK phosphorylation at Thr183/Tyr185 residues in human DBTRG-05MG cells at 206 uM after 48 hrs by Western blot analysis (reference value: 1); type: cell-based
RG2 [8] = experiment: Induction of apoptosis in rat RG2 cells assessed as cleaved caspace-3 expression at 206 uM after 48 hrs by Western blot analysis (reference value: 1); type: functional
RG2 [9] = experiment: Induction of apoptosis in rat RG2 cells assessed as cleaved caspace-9 expression at 206 uM after 48 hrs by Western blot analysis (reference value: 1); type: functional
RG2 [10] = experiment: Induction of apoptosis in rat RG2 cells assessed as Bcl2 expression at 112.4 uM after 48 hrs in presence of TMZ by Western blot analysis (reference value: 1); type: functional
[11] = Inhibition of TMZ-induced drug resistance in rat RG2 cells assessed as MGMT expression at 112.4 uM after 48 hrs by Western blot analysis (reference value: 2); type: functional
RG2 [12] = experiment: Induction of apoptosis in rat RG2 cells assessed as cleaved PARP expression at 112.4 uM after 48 hrs by Western blot analysis (reference value: 1); type: functional
RG2 [13] = experiment: Induction of apoptosis in rat RG2 cells assessed as cleaved caspace-3 expression at 112.4 uM after 48 hrs by Western blot analysis (reference value: 1); type: functional
DBTRG-05MG [14] = experiment: Induction of cell cycle arrest in human DBTRG-05MG cells assessed as p21 expression at 112.4 uM after 48 hrs by Western blot analysis (reference value: 1); type: functional
DBTRG-05MG [15] = experiment: Induction of cell cycle arrest in human DBTRG-05MG cells assessed as CyclinA expression at 112.4 uM after 48 hrs in presence of TMZ by Western blot analysis (reference value: 1); type: functional
DBTRG-05MG [16] = experiment: Induction of cell cycle arrest in human DBTRG-05MG cells assessed as accumulation at G0/G1 phase at 112.4 uM after 12 hrs in presence of TMZ by propidium iodide staining based flow cytometric analysis (reference value: 47.16 +/- 1.55%); type: functional
RG2 [17] = experiment: Induction of cell cycle arrest in rat RG2 cells assessed as accumulation at G2/M phase at 112.4 uM after 12 hrs by propidium iodide staining based flow cytometric analysis (reference value: 20.04 +/- 0.55%); type: functional
RG2 [18] = experiment: Induction of cell cycle arrest in rat RG2 cells assessed as accumulation at S phase at 112.4 uM after 48 hrs by propidium iodide staining based flow cytometric analysis (reference value: 20.15 +/- 2.44%); type: functional
RG2 [19] = experiment: Induction of apoptosis in rat RG2 cells assessed as cleaved PARP expression at 112.4 uM after 48 hrs in presence of TMZ by Western blot analysis (reference value: 1); type: functional
RG2 [20] = experiment: Induction of cell cycle arrest in rat RG2 cells assessed as accumulation at G0/G1 phase at 112.4 uM after 6 hrs in presence of TMZ by propidium iodide staining based flow cytometric analysis (reference value: 57.81 +/- 1.9%); type: functional
[21] = target: T1, Serine/threonine-protein kinase AKT (Homo sapiens) (UniProt P31751+Q9Y243+P31749); experiment: Inhibition of AKT phosphorylation at S473 residues in human DBTRG-05MG cells at 112.4uM after 48 hrs in presence of TMZ by Western blot analysis; type: cell-based
DBTRG-05MG [22] = experiment: Induction of DNA damage in human DBTRG-05MG cells assessed as ATR phosphorylation at ser428 residues at 112.4 uM after 48 hrs in presence of TMZ by Western blot analysis (reference value: 1); type: functional
RG2 [23] = experiment: Induction of cell cycle arrest in rat RG2 cells assessed as accumulation at S phase at 112.4 uM after 12 hrs by propidium iodide staining based flow cytometric analysis (reference value: 20.15 +/- 2.44%); type: functional
[24] = target: T1, Serine/threonine-protein kinase AKT (Homo sapiens); experiment: Inhibition of AKT phosphorylation at S473 residues in human DBTRG-05MG cells at 112.4uM after 48 hrs by Western blot analysis; type: cell-based
RG2 [25] = experiment: Induction of apoptosis in rat RG2 cells assessed as increase in apoptotic body formation at 112.4 uM after 48 hrs in presence of TMZ by TUNEL assay; type: functional, cell-based
[26] = Inhibition of TMZ-induced drug resistance in rat RG2 cells assessed as MDR1 expression at 112.4 uM after 48 hrs by Western blot analysis (reference value: 5.3); type: functional
RG2 [27] = experiment: Induction of DNA damage in rat RG2 cells assessed as ATR phosphorylation at ser428 residues at 112.4 uM after 48 hrs in presence of TMZ by Western blot analysis (reference value: 1); type: functional
[28] = Inhibition of TMZ-induced drug resistance in human DBTRG-05MG cells assessed as CD133 expression at 112.4 uM after 48 hrs by Western blot analysis (reference value: 2.3); type: functional
DBTRG-05MG [29] = experiment: Synergistic cytotoxicity against human DBTRG-05MG cells assessed as combination index at 134.9 uM after 48 hrs in presence of 206 uM TMZ by MTT assay; type: functional
RG2 [30] = experiment: Synergistic cytotoxicity against rat RG2 cells assessed as synergistic effect index at 112.4 uM after 48 hrs in presence of 515.1 uM TMZ by MTT assay; type: functional
[31] = Effect on p38 expression in rat RG2 cells at 112.4uM after 48 hrs by Western blot analysis (reference value: 1); type: functional
[32] = Inhibition of TMZ-induced drug resistance in rat RG2 cells assessed as CD133 expression at 112.4 uM after 48 hrs by Western blot analysis (reference value: 2.4); type: functional
RG2 [33] = experiment: Synergistic cytotoxicity against rat RG2 cells assessed as combination index at 89.9 uM after 48 hrs in presence of 515.1 uM TMZ by MTT assay; type: functional
RG2 [34] = experiment: Induction of cell cycle arrest in rat RG2 cells assessed as CyclinB1 expression at 112.4 uM after 48 hrs in presence of TMZ by Western blot analysis (reference value: 1); type: functional

T1 sequence (P31749 whole entry, looked up): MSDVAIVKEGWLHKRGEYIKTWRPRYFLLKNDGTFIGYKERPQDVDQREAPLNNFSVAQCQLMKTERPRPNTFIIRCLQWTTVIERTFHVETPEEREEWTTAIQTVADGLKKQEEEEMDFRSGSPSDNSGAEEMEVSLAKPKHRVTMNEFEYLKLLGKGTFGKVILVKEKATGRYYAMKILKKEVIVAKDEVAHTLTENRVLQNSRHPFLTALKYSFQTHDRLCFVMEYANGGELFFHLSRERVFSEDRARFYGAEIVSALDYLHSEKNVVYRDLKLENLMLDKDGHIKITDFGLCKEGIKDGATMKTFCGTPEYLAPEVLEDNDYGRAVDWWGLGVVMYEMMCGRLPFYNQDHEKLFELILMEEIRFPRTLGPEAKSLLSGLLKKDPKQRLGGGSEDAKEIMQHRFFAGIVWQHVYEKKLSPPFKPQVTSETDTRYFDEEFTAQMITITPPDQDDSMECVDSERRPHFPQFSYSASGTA
T1 sequence (P31751 whole entry, looked up): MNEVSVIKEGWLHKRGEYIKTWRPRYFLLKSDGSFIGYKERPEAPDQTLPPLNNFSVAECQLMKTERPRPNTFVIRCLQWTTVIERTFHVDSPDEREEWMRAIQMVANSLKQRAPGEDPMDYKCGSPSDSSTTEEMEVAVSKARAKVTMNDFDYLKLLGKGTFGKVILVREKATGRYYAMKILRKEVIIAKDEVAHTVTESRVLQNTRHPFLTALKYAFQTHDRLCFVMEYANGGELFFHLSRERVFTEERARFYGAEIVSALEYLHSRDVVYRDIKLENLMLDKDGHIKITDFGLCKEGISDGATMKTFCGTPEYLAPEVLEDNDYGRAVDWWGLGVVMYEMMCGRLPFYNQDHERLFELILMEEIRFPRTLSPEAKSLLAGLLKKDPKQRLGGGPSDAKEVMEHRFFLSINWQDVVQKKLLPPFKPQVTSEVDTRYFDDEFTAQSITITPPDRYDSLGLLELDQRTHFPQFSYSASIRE
T1 sequence (Q9Y243 whole entry, looked up): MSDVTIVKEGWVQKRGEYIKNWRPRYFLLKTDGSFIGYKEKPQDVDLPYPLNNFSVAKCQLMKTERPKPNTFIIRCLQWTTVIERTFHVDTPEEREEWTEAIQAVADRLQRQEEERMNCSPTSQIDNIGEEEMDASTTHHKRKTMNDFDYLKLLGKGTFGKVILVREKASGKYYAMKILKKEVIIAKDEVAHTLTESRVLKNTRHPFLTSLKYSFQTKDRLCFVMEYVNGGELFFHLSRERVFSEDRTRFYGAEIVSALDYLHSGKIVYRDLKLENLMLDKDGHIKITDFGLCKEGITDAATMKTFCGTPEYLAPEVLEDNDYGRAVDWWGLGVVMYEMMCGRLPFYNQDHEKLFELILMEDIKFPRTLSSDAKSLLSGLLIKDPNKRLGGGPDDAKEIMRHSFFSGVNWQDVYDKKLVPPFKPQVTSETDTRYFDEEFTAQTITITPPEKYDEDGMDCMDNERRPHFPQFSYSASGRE

SMILES: Cn1nnc2c(C(N)=O)ncn2c1=O [TEMOZOLOMIDE]
fold change (FC) [1]: 0.6 | Activity (DBTRG-05MG [2]): Active | fold change (FC) (DBTRG-05MG [3]): 1.8 | Activity (RG2 [4]): 20.81% | Activity (RG2 [5]): Active | fold change (FC) (RG2 [6]): 1.8 | fold change (FC) (DBTRG-05MG [7]): 1.2 | fold change (FC) (RG2 [8]): 2.5 | fold change (FC) (RG2 [9]): 1.7

fold change (FC) [21]: 0.5 | fold change (FC) [24]: 0.8
SMILES: C[C@@H]1CC[C@H]2C(C)(C)[C@H]3C[C@@]12CC[C@@]3(C)O [CEDROL]
fold change (FC) (RG2 [10]): 0.9 | fold change (FC) [11]: 0.5 | fold change (FC) (RG2 [12]): 1.4 | fold change (FC) (RG2 [13]): 1.6 | fold change (FC) (DBTRG-05MG [14]): 1.1 | fold change (FC) (DBTRG-05MG [15]): 1.6 | Activity (DBTRG-05MG [16]): 49.57% | Activity (RG2 [17]): 18.1% | Activity (RG2 [18]): 16.62% | fold change (FC) (RG2 [19]): 1.6 | Activity (RG2 [20]): 61.59% | fold change (FC) (DBTRG-05MG [22]): 2.3 | Activity (RG2 [23]): 16.92% | Activity (RG2 [25]): Active | fold change (FC) [26]: 2 | fold change (FC) (RG2 [27]): 1.1 | fold change (FC) [28]: 1.5 | CI (DBTRG-05MG [29]): 0.59 | Activity_index (RG2 [30]): 0.83 | fold change (FC) [31]: 0.8 | fold change (FC) [32]: 1.3 | CI (RG2 [33]): 1.38 | fold change (FC) (RG2 [34]): 0.7
